# Measured values from ChEMBL document CHEMBL1125524, “Adenosine A1 antagonists. 2. Structure-activity relationships on diuretic activities and protective effects against acute renal failure” (J Med Chem, 1992).
# Tests used:
# Rattus norvegicus [1] = assay: Urea nitrogen concentration measured after intraperitoneal administration of 10 mg/kg of compound to rats(vehicle 144.1+/-6.1); assay type: functional
# Rattus norvegicus [2] = assay: Percent inhibition of serum creatinine by the compound given as ratio of Cr value in treated to vehicle treated ones after intraperitoneal administration of 10 mg/kg of compound to rats(vehicle 4.21+/-0.21); assay type: functional; conditions: ip
# Rattus norvegicus [3] = assay: Ratio of urinary excretion value (Na+ concentration) in treated rats to that in control rats, at a peroral dose of 25 mg/Kg; assay type: functional, Urine
# Rattus norvegicus [4] = assay: Effect on urinary excretion potassium and sodium after oral administration of 25 mg/kg to rats(potassium and sodium excretion in control rat is 0.172+/-0.015); assay type: functional, Urine
# Rattus norvegicus [5] = assay: Percent inhibition of Urea nitrogen by the compound given as ratio of UN value in treated to vehicle treated ones after intraperitoneal administration of 10 mg/kg of compound to rats(vehicle 144.1+/-6.1); assay type: functional; conditions: ip
# Rattus norvegicus [6] = assay: Percent inhibition of serum creatinine by the compound given as ratio of Cr value in treated to vehicle treated ones after intraperitoneal administration of 1 mg/kg of compound to rats(vehicle 3.75+/-0.34); assay type: functional; conditions: ip
# Adenosine receptor A1 [7] = biological target: T1, Adenosine receptor A1 (Cavia porcellus, UniProt P47745)
# T1 sequence (P47745 whole entry): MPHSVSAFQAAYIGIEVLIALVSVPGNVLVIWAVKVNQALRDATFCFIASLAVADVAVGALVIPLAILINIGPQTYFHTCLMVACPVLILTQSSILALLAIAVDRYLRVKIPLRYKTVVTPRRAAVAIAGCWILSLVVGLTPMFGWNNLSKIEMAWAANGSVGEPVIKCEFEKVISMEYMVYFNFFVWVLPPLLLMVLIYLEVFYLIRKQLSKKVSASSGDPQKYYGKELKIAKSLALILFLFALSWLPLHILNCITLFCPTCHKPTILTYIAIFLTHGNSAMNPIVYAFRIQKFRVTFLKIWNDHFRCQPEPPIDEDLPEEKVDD
# Description: Binding affinity against adenosine A1 receptor in guinea pig forebrain membranes using N6-[3H]cyclohexyladenosine as radioligand
# Rattus norvegicus [8] = assay: Ratio of urinary excretion value (urinary volume) in treated rats to that in control rats, at a peroral dose of 25 mg/Kg; assay type: functional, Urine
# Rattus norvegicus [9] = assay: Oral diuretic activity was measured after oral administration of 25 mg/kg to rats(control volume is 0.74+/-0.07); assay type: functional, Urine
# Rattus norvegicus [10] = assay: Serum creatinine concentration measured after intraperitoneal administration of 10 mg/kg of compound to rats(vehicle 4.21+/-0.21); assay type: functional
# Rattus norvegicus [11] = assay: Urea nitrogen concentration measured after intraperitoneal administration of 1 mg/kg of compound to rats(vehicle 137.4+/-16.5); assay type: functional
# Rattus norvegicus [12] = assay: Serum creatinine concentration measured after intraperitoneal administration of 1 mg/kg of compound to rats(vehicle 3.75+/-0.34); assay type: functional
# Rattus norvegicus [13] = assay: Percent inhibition of Urea nitrogen by the compound given as ratio of UN value in treated to vehicle treated ones after intraperitoneal administration of 1 mg/kg of compound to rats(vehicle 137.4+/-16.5); assay type: functional; conditions: ip
# Adenosine A2 receptor [14] = biological target: T2, Adenosine A2 receptor (Rattus norvegicus, UniProt P29276+P30543)
# Rattus norvegicus [15] = assay: Ratio of sodium ion/potassium ion concentration in treated rats to that in control rats, at a peroral dose of 25 mg/Kg; assay type: functional
# Rattus norvegicus [16] = assay: Effect on urinary excretion potassium and sodium after oral administration of 1.6 mg/kg to rats(potassium and sodium excretion in control rat is 0.173+/-0.015); assay type: functional, Urine
# Adenosine A2 receptor [17] = biological target: T2, Adenosine A2 receptor; remark: listed apart in the source
# Description: Binding affinity towards adenosine A2 receptor in rat striatal membranes using N-[3H]-ethyladenosin-5''-uronamide as radioligand
# Rattus norvegicus [18] = assay: Percent inhibition of serum creatinine by the compound given as ratio of Cr value in treated to vehicle treated ones after intraperitoneal administration of 1 mg/kg of compound to rats(vehicle 4.70+/-0.17); assay type: functional; conditions: ip
# Adenosine receptor A1 [19] = biological target: T3, Adenosine receptor A1 (Rattus norvegicus, UniProt P25099)
# T3 sequence (P25099 whole entry): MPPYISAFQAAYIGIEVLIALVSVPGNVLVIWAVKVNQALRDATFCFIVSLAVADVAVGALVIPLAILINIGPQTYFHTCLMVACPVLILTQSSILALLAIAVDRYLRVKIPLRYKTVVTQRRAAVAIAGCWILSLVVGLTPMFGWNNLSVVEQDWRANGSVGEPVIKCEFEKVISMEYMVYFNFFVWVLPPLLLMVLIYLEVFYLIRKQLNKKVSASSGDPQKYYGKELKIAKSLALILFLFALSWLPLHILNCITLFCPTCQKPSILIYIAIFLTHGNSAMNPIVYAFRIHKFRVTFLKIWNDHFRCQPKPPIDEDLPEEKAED
# Description: Binding affinity towards adenosine A1 receptor in rat cortical membranes using N6-[3H]cyclohexyladenosine as radioligand
# Rattus norvegicus [20] = assay: Urea nitrogen concentration measured after intraperitoneal administration of 1 mg/kg of compound to rats(vehicle 154.2+/-5.0); assay type: functional
# Rattus norvegicus [21] = assay: Effect on urinary excretion potassium and sodium after oral administration of 25 mg/kg to rats(potassium and sodium excretion in control rat is 0.186+/-0.020); assay type: functional, Urine
# Rattus norvegicus [22] = assay: Percent inhibition of Urea nitrogen by the compound given as ratio of UN value in treated to vehicle treated ones after intraperitoneal administration of 1 mg/kg of compound to rats(vehicle 154.2+/-5.0); assay type: functional; conditions: ip
# Rattus norvegicus [23] = assay: Ratio of sodium ion/potassium ion concentration in treated rats to that in control rats, at a peroral dose of 1.6 mg/Kg; assay type: functional
# Rattus norvegicus [24] = assay: Ratio of urinary excretion value (Na+ concentration) in treated rats to that in control rats, at a peroral dose of 1.6 mg/Kg; assay type: functional, Urine
# Rattus norvegicus [25] = assay: Oral diuretic activity was measured after oral administration of 1.6 mg/kg to rats(control volume is 0.93+/-0.03); assay type: functional, Urine
# Rattus norvegicus [26] = assay: Ratio of urinary excretion value (urinary volume) in treated rats to that in control rats, at a peroral dose of 6.25 mg/Kg; assay type: functional, Urine
# Rattus norvegicus [27] = assay: Oral diuretic activity was measured after oral administration of 25 mg/kg to rats(control volume is 0.91+/-0.04); assay type: functional, Urine
# Rattus norvegicus [28] = assay: Ratio of urinary excretion value (urinary volume) in treated rats to that in control rats, at a peroral dose of 1.6 mg/Kg; assay type: functional, Urine
# Rattus norvegicus [29] = assay: Ratio of urinary excretion value (Na+ concentration) in treated rats to that in control rats, at a peroral dose of 6.25 mg/Kg; assay type: functional, Urine
# Rattus norvegicus [30] = assay: Serum creatinine concentration measured after intraperitoneal administration of 1 mg/kg of compound to rats(vehicle 4.70+/-0.17); assay type: functional
# Rattus norvegicus [31] = assay: Oral diuretic activity was measured after oral administration of 25 mg/kg to rats(control volume is 1.00+/-0.09); assay type: functional, Urine
# Rattus norvegicus [32] = assay: Percent inhibition of Urea nitrogen by the compound given as ratio of UN value in treated to vehicle treated ones after intraperitoneal administration of 1 mg/kg of compound to rats(vehicle 195.8+/-14.4); assay type: functional; conditions: 1 mg/kg
# Rattus norvegicus [33] = species on record: Rattus norvegicus; conditions: dose 1 mg/kg, route intraperitoneal
# Rattus norvegicus [34] = assay: Effect on urinary excretion potassium and sodium after oral administration of 25 mg/kg to rats(potassium and sodium excretion in control rat is 0.180+/-0.024); assay type: functional, Urine
# Rattus norvegicus [35] = assay: Serum creatinine concentration measured after intraperitoneal administration of 1 mg/kg of compound to rats(vehicle 5.07+/-0.33); assay type: functional; conditions: 1 mg/kg
# Rattus norvegicus [36] = assay: Urea nitrogen concentration measured after intraperitoneal administration of 1 mg/kg of compound to rats(vehicle 195.8+/-14.4); assay type: functional; conditions: 1 mg/kg
structure (smiles),measurement,setting,value
CCCn1c(=O)c2c(nc(C3CCCC3)n2C)n(CCC)c1=O,UN,Rattus norvegicus [1],107.9 mg/dL
same,inhibition in vivo at 10 mg/kg,Rattus norvegicus [2],26%
same,T/C,Rattus norvegicus [3],1.07
same,Na,Rattus norvegicus [4],0.184 m equiv 6hr-1 100g-1
same,inhibition in vivo at 10 mg/kg,Rattus norvegicus [5],25%
same,inhibition in vivo at 1 mg/kg,Rattus norvegicus [6],30%
same,Ki,Adenosine receptor A1 [7],3900 nM
same,T/C,Rattus norvegicus [8],1.45
same,Urine volume,Rattus norvegicus [9],1.07 ml 6hr-1 100g-1
same,Cr,Rattus norvegicus [10],3.07 mg/dL
same,UN,Rattus norvegicus [11],99.9 mg/dL
same,Cr,Rattus norvegicus [12],2.62 mg/dL
same,inhibition in vivo at 1 mg/kg,Rattus norvegicus [13],27%
same,Ki,Adenosine A2 receptor [14],> 10000 nM
same,Na+/K+,Rattus norvegicus [15],1
FC(F)(F)c1nnc2c(NC3CCCC3)nc3ccc(Cl)cc3n12,Na,Rattus norvegicus [16],0.212 m equiv 6hr-1 100g-1
same,Ki,Adenosine A2 receptor [17],2100 nM
same,inhibition in vivo at 1 mg/kg,Rattus norvegicus [18],45%
same,T/C,Rattus norvegicus [3],1.74
same,Ki,Adenosine receptor A1 [19],5.5 nM
same,UN,Rattus norvegicus [20],88.7 mg/dL
same,Ki,Adenosine receptor A1 [7],36 nM
same,T/C,Rattus norvegicus [8],1.91
same,Na,Rattus norvegicus [21],0.323 m equiv 6hr-1 100g-1
same,inhibition in vivo at 1 mg/kg,Rattus norvegicus [22],42%
same,Na+/K+,Rattus norvegicus [23],0.98
same,T/C,Rattus norvegicus [24],1.22
same,Urine volume,Rattus norvegicus [25],1.07 ml 6hr-1 100g-1
same,T/C,Rattus norvegicus [26],2.17
same,Urine volume,Rattus norvegicus [27],1.74 ml 6hr-1 100g-1
same,T/C,Rattus norvegicus [28],1.15
same,T/C,Rattus norvegicus [29],1.82
same,Ki,Adenosine A2 receptor [14],710 nM
same,Na+/K+,Rattus norvegicus [15],1.31
same,Cr,Rattus norvegicus [30],2.58 mg/dL
CCCn1c(=O)c2nc(C3CC4CCC3C4)[nH]c2n(CCC)c1=O (stereo in doubt; 20),T/C,Rattus norvegicus [3],2.06
same,Urine volume,Rattus norvegicus [31],2.13 ml 6hr-1 100g-1
same,Inhibition,Rattus norvegicus [32],49%
same,Inhibition,Rattus norvegicus [33],50%
same,Na,Rattus norvegicus [34],0.372 m equiv 6hr-1 100g-1
same,T/C,Rattus norvegicus [8],2.13
same,Cr,Rattus norvegicus [35],2.54 mg/dL
same,T/C,Rattus norvegicus [26],1.12
same,T/C,Rattus norvegicus [29],1.27
same,UN,Rattus norvegicus [36],98.8 mg/dL
same,Ki,Adenosine A2 receptor [14],290 nM
same,Na+/K+,Rattus norvegicus [15],1.63
